The values that follow come from US20210015098A1, “MOLECULES HAVING PESTICIDAL UTILITY, AND INTERMEDIATES, COMPOSITIONS, AND PROCESSES, RELATED THERETO” (DOW AGROSCIENCES LLC, priority 2018, published 2021).

A word on the mortality: it is the percentage killed.

Common to all, as to assay type: in vivo
Series [1] relates to Green Peach Aphid (Myzus persicae, MYZUPE). Kind of series: Bioassays on Green Peach Aphid (GPA), foliar spray on cabbage seedlings. As to conditions: for GPA (rating): Green Peach Aphid, Table ABC Biological Results. The protocol: Certain molecules disclosed in this document were tested against GPA using procedures described in the following example. In the reporting of the results, the “GPA & YFM Rating Table” was used (See Table Section).
Cabbage seedlings grown in 3-inch pots, with 2-3 small (3-5 cm) true leaves, were used as test substrate. The seedlings were infested with 20-50 GPA (wingless adult and nymph stages) one day prior to chemical application. Four pots with individual seedlings were used for each treatment. Test molecules (2 mg) were dissolved in 2 mL of acetone/methanol (1:1) solvent, forming stock solutions of 1000 ppm test molecule. The stock solutions were diluted 5× with 0.025% Tween 20 in water to obtain the solution at 200 ppm test molecule. A hand-held aspirator-type sprayer was used for spraying a solution to both sides of […] leaves until runoff. Reference plants (solvent check) were sprayed with the diluent only containing 20% by volume of acetone/methanol (1:1) solvent. Treated plants were held in a holding room for three days at approximately 25° C. and ambient relative humidity (RH) prior to grading. Evaluation was conducted by counting the number of live aphids per plant under a microscope. Percent control was measured using Abbott's correction formula (W. S. Abbott, “A Method of Computing the Effectiveness of an Insecticide” J. Econ. Entomol. 18 (1925), pp. 265-267) as follows. Corrected % Control=100*(X−Y)/X where X=No. of live aphids on solvent check plants and Y=No. of live aphids on treated plants. The results are indicated in the table entitled “Table ABC: Biological Results” (See Table Section).

In series [2] the test system is Yellow Fever Mosquito (Aedes aegypti, AEDSAE). As to the method: Certain molecules disclosed in this document were tested against YFM using procedures described in the following paragraph. In the reporting of the results, the “GPA & YFM Rating Table” was used (See Table Section).
Master plates containing 400 μg of a molecule dissolved in 100 μL of dimethyl sulfoxide (DMSO) (equivalent to a 4000 ppm solution) are used. A master plate of assembled molecules contains 15 μL per well. To this plate, 135 μL of a 90:10 water/acetone mixture is added to each well. A robot (Biomek® NXP Laboratory Automation Workstation) is programmed to dispense 15 μL aspirations from the master plate into an empty 96-well shallow plate (“daughter” plate). There are 6 reps (“daughter” plates) created per master. The created “daughter” plates are then immediately infested with YFM larvae.
The day before plates are to be treated, mosquito eggs are placed in Millipore water containing liver powder to begin hatching (4 g into 400 mL). After the “daughter” plates are created using the robot, they are infested with 220 μL of the liver powder/larval mosquito mixture (about 1 day-old larvae). After plates are infested with mosquito larvae, a non-evaporative lid is used to cover the plate to reduce drying. Plates are held at room temperature for 3 days prior to grading. After 3 days, each well is observed and scored based on mortality. The results are indicated in the table entitled “Table ABC: Biological Results” (See Table Section).

Series [3] deals with Cabbage Looper (Trichoplusia ni, TRIPNI). Kind of series: Bioassays on Cabbage Looper (CL), 128-well diet tray assay. Particulars: for pest or weed control at 50 µg/cm2: Cabbage Looper, Table ABC Biological Results, read-out: CL (rating). An outline of the steps: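 Second-instar larvae (1–5 per well) placed on artificial diet surface-treated with 50 μg/cm^2 test molecule applied in 90:10 acetone-water and dried. Held at 25° C., 14:10 light-dark, for five to seven days. Percent mortality scored per well and averaged over eight wells.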

Series [4] has as its system Beet Armyworm (Spodoptera exigua, LAPHEG). Briefly: Bioassays on Beet Armyworm (BAW), 128-well diet tray assay. As to conditions: for pest or weed control at 50 µg/cm2: Beet Armyworm, Table ABC Biological Results, read-out: BAW (rating). An outline of the steps: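 Test molecule was dissolved in 90:10 acetone-water and applied at 50 μg/cm^2 onto artificial diet in eight wells, then dried. Second instar larvae, one to five per well, were added, and trays were kept vented at 25° C. with a 14:10 photoperiod for five to seven days before mortality was recorded.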

Consider `Nc1c(F)ccc(NC(=O)c2cc(NC(=O)[C@H]3[C@H](c4cccc(C(F)(F)F)c4)C3(Cl)Cl)ccc2Cl)c1F` [DP6, N-(3-Amino-2,4-difluorophenyl)-2-chloro-5-((1R,3R)-2,2-dichloro-3-(3-(trifluoromethyl)phenyl)cyclopropane-1-carboxamido)benzamide], for which the mortality at 200 ppm in series [1] (Myzus persicae, 72 h, 200 ppm foliar spray on cabbage seedlings, three days, Abbott corrected % control, read-out: GPA % Control (or Mortality) rating) is 80 to 100%. For the same molecule, the “YFM % Control (or Mortality) rating” value in series [2] (about 1 day-old larvae, 96-well plate, room temperature, 3 days) was “B (More than 0-Less than 80)”. Also, the mortality at 50 µg/cm2 in series [3] (168 h, 50 μg/cm^2 on artificial diet, second instar larvae, 25° C., five to seven days, read-out: CL % Control (or Mortality) rating) was in the range of 50 to 100%; in series [4] (168 h, 50 μg/cm^2 on artificial diet, second instar larvae, 25° C., five to seven days, read-out: BAW % Control (or Mortality) rating), 50 to 100%.
On to `C=CCSCC(=O)Nc1c(F)ccc(NC(=O)c2cc(NC(=O)[C@H]3[C@H](c4ccc(F)c(C(F)(F)F)c4)C3(Cl)Cl)ccc2Cl)c1F` [F3, N-(3-(2-(Allylthio)acetamido)-2,4-difluorophenyl)-2-chloro-5-((1R,3R)-2,2-dichloro-3-(4-fluoro-3-(trifluoromethyl)phenyl)cyclopropane-1-carboxamido)benzamide], for which the “GPA (rating)” value in series [1] is “B (More than 0-Less than 80)”. Moreover, the pest or weed control at 50 µg/cm2 in series [3] and in series [4] was 50 to 100% throughout.
As to `CC[S+]([O-])C(C)C(=O)Nc1c(F)ccc(NC(=O)c2cc(NC(=O)[C@H]3[C@H](c4ccc(F)c(C(F)(F)F)c4)C3(Cl)Cl)ccc2Cl)c1F` (stereo partly drawn) [F34, 2-chloro-5-((R,3R)-2,2-dichloro-3-(4-fluoro-3-(trifluoromethyl)phenyl)cyclopropane-1-carboxamido)-N-(3-(2-(ethylsulfinyl)propanamido)-2,4-difluorophenyl)benzamide], the “GPA (rating)” value in series [1] is listed as “B (More than 0-Less than 80)”. Besides, the “YFM (rating)” value in series [2] (Yellow Fever Mosquito, Table ABC Biological Results) is reported as “A (80-100)”. The pest or weed control at 50 µg/cm2 in series [3] and in series [4] was 50 to 100% throughout.
